Test results reported in patent US12497394B2, “Fused-cyclic pyrazolone formamide compound and preparation method therefor, pharmaceutical composition and use thereof” (SHANGHAI INSTITUTE OF MATERIA MEDICA, CHINESE ACADEMY OF …, priority 2018, dated 2025).
“And” between values parts separate entries of the source, which are not always exact repeats. Equal values may be shown once.

Target: receptor tyrosine kinase c-Met (Homo sapiens, UniProt P08581)
Experiment: In vitro c-Met kinase inhibitory activity
Assay type: biochemical
Settings: two values per compound; for inhibition at 0.01 µM / inhibition at 0.1 µM / inhibition at 0.001 µM: read-out: c-Met Inhibitory rate (%)
Excerpt: Experimental Example 3: Study of In Vitro c-Met Kinase Inhibitory Activity
Since the screening results of 369 kinase profiles of compound DC621044 has shown that the compound has a certain inhibitory activity on c-Met. We further screened some compounds for their inhibitory activity on c-Met kinase.

Chain of receptor tyrosine kinase c-Met (P08581 25-1390): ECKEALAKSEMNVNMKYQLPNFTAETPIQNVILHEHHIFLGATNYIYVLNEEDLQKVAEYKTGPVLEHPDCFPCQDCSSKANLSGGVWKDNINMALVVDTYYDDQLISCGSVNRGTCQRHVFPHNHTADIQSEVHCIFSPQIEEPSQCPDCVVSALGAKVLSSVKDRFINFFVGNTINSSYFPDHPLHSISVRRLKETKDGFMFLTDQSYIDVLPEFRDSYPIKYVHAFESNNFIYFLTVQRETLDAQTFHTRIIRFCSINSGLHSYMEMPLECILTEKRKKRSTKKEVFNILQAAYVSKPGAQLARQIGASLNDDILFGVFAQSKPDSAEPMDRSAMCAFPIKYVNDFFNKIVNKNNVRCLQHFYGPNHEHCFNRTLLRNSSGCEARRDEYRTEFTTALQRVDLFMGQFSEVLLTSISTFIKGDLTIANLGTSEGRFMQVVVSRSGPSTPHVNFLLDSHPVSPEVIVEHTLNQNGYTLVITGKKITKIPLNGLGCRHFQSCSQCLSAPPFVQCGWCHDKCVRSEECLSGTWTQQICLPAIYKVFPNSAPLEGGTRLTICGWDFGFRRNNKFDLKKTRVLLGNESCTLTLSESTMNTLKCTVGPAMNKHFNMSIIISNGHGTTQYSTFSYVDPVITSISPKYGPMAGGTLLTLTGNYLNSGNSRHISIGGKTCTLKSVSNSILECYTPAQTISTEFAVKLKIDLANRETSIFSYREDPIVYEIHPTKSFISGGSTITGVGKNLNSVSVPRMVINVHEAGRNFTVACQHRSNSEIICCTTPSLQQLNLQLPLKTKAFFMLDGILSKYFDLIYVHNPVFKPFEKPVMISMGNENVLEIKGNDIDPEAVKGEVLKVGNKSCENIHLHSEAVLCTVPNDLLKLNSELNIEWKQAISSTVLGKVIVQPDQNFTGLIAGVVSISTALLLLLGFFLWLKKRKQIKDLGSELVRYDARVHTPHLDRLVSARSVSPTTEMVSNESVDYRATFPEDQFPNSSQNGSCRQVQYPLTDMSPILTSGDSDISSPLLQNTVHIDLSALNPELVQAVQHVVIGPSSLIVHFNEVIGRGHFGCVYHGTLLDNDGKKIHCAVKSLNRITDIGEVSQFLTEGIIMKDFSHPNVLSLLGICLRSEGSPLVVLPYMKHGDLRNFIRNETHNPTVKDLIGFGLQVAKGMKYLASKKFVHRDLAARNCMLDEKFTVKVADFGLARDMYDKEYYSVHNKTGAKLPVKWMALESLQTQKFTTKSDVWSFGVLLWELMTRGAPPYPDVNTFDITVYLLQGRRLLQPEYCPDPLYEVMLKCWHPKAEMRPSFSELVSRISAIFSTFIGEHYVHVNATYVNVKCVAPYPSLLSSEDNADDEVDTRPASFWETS

SMILES | c-Met Inhibitory rate (%) (1 nM, 0.001 µM) | c-Met Inhibitory rate (%) (10 nM, 0.01 µM) | inhibition at 0.01 µM (10 nM) [%] | c-Met Inhibitory rate (%) (100 nM, 0.1 µM) | inhibition at 0.1 µM (100 nM) [%] | inhibition at 0.001 µM (1 nM) [%]
COc1cc2ncnc(Oc3ccc(NC(=O)c4c5n(n(-c6ccccc6F)c4=O)CCCC5)cc3F)c2cc1OC [DC621034, N-(4-((6,7-dimethoxyquinazoline-4-yl)oxy)-3-fluorophenyl)-1-(2-fluorophenyl)-2-oxo-1,2,4,5,6,7-hexahydropyrazolo[1,5-a]pyridine-3-formamide] | 34.8% and 63.9% | 66.5% | 48.3 | 97.0 | 97.5 | –
O=C(Nc1ccc(Oc2ncnc3[nH]cc(-c4ccccc4)c23)c(F)c1)c1c2n(n(-c3ccccc3)c1=O)CCCC2 [DC621052, N-(3-fluoro-4-((5-phenyl-7H-pyrrolo[2,3-d]pyrimidin-4-yl)oxy)phenyl)-2-oxo-1-phenyl-1,2,4,5,6,7-hexahydropyrazolo[1,5-a]pyridine-3-formamide] | 43.0% | 55.1% and 85.0% | – | 94.1 | 84.5 | 32.7
O=C(Nc1ccc(Oc2ncnc3[nH]cc(-c4ccccc4)c23)c(F)c1)c1c2n(n(-c3cc(F)ccc3F)c1=O)CCCC2 [DC621055, 1-(2,5-difluorophenyl)-N-(3-fluoro-4-((5-phenyl-7H-pyrrolo[2,3-d]pyrimidin-4-yl)oxy)phenyl)-2-oxo-1,2,4,5,6,7-hexahydropyrazolo[1,5-a]pyridine-3-formamide] | 30.8% and 53.9% | 74.2% | 68.2 | 100 | 96 | –
O=C(Nc1ccc(Oc2ncnc3[nH]cc(-c4ccccc4)c23)c(F)c1)c1c2n(n(-c3ccccc3F)c1=O)CCCC2 [DC621058, N-(3-fluoro-4-((5-phenyl-7H-pyrrolo[2,3-d]pyrimidin-4-yl)oxy)phenyl)-1-(2-fluorophenyl)-2-oxo-1,2,4,5,6,7-hexahydropyrazolo[1,5-a]pyridine-3-formamide] | – | 45.1% | 54.6 | 83.6 | 89.2 | –
COc1cc2ncnc(Oc3ccc(NC(=O)c4c5n(n(-c6ccc(F)cc6)c4=O)CCCC5)cc3C(F)(F)F)c2cc1OC [DC621101, N-(4-((6,7-dimethoxyquinazoline-4-yl)oxy)-3-trifluoromethylphenyl)-1-(4-fluorophenyl)-2-oxo-1,2,4,5,6,7-hexahydropyrazolo[1,5-a]pyridine-3-formamide] | 19.6% | 60.9% | 75 | 91.0 | 96.5 | 27.2
COCCOc1cc2ncnc(Oc3ccc(NC(=O)c4c5n(n(-c6ccc(F)cc6)c4=O)CCCC5)cc3C(F)(F)F)c2cc1OCCOC [DC621102, N-(4-((6,7-bis(2-methoxyethoxy)quinazolin-4-yl)oxy)-3-trifluoromethylphenyl)-1-(4-fluorophenyl)-2-oxo-1,2,4,5,6,7-hexahydropyrazolo[1,5-a]pyridine-3-formamide] | 17.2% | 77.2% and 53.4% | – | 93.9 | 99.1 | 25.6
